One assay addresses T1, human PPARalpha (Homo sapiens, UniProt Q07869).
T1 construct: amino acids S167-Y468; expressed in transfected cells; host or cells: HEK (human embryo kidney) cells, stably transfected; plasmid pcDNA3
T1 sequence (Q07869 167-468): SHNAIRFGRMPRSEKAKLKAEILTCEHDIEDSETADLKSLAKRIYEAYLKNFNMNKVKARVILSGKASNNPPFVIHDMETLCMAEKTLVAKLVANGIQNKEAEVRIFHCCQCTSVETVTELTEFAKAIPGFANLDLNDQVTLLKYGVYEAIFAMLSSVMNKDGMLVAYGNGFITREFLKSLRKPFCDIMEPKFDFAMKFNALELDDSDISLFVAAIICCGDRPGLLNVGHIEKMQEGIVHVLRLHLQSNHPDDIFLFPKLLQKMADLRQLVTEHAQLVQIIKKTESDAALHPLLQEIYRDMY
Kind of assay: Cellular PPARalpha assay (luciferase reporter, stably transfected HEK cell line). Format: cell-based. The conditions noted are these: GR-GAL4-humanPPARalpha-LBD. The protocol:
Determination of EC50 Values of PPAR Agonists in the Cellular PPARalpha Assay
(§1) The potency of substances which bind to human PPARalpha and activate it in an agonistic manner is analyzed using a stably transfected HEK cell line (HEK=human embryo kidney) which is referred to here as PPARalpha reporter cell line. It contains two genetic elements, a luciferase reporter element (pdeltaM-GAL4-Luc-Zeo) and a PPARalpha fusion protein (GR-GAL4-humanPPARalpha-LBD) which mediates expression of the luciferase reporter element depending on a PPARalpha ligand. The stably and constitutively expressed fusion protein GR-GAL4-humanPPARalpha-LBD binds in the cell nucleus of the PPARalpha reporter cell line via the GAL4 protein portion to the GAL4 DNA binding motifs 5′-upstream of the luciferase reporter element which is stably integrated in the genome of the cell line. There is only weak expression of the luciferase reporter gene in the absence of a PPARalpha ligand if fatty acid-depleted fetal calf serum (cs-FCS) is used in the assay. PPARalpha ligands bind and activate the PPARalpha fusion protein and thereby stimulate the expression of the luciferase reporter gene. The luciferase which is formed can be detected by means of chemiluminescence via an appropriate substrate.
The PPARalpha reporter cell line was prepared in two stages. Firstly, the luciferase reporter element was constructed and stably transfected into HEK cells. For this purpose, five binding sites of the yeast transcription factor GAL4 (Accession # AF264724) were cloned in 5′-upstream of a 68 bp-long minimal MMTV promoter (Accession # V01175). The minimal MMTV promoter section contains a […] and a TATA element in order to enable efficient transcription by RNA polymerase II. The cloning and sequencing of the GAL4-MMTV construct took place in analogy to the description of Sambrook J. et. al. (Molecular cloning, Cold Spring Harbor Laboratory Press, 1989). Then the complete Photinus pyralis gene (Accession # M15077) was cloned in 3′-downstream of the GAL4-MMTV element. After sequencing, the luciferase reporter element consisting of five GAL4 binding sites, MMTV promoter and luciferase gene was recloned into a plasmid which confers zeocin resistance in order to obtain the plasmid pdeltaM-GAL4-Luc-Zeo. This vector was transfected into HEK cells in accordance with the statements in Ausubel, F. M. et al. (Current protocols in molecular biology, Vol. 1-3, John Wiley & Sons, Inc., 1995).
In a second step, the PPARalpha fusion protein (GR-GAL4-humanPPARalpha-LBD was introduced into the stable cell clone described. For this purpose, initially the cDNA coding for the N-terminal 76 amino acids of the glucocorticoid receptor (Accession # P04150) was linked to the cDNA section coding for amino acids 1-147 of the yeast transcription factor GAL4 (Accession # P04386). The cDNA of the ligand-binding domain of the human PPARalpha receptor (amino acids S167-Y468; Accession # S74349) was cloned in at the 3′-end of this GR-GAL4 construct. The fusion construct prepared in this way (GR-GAL4-humanPPARalpha-LBD) was recloned into the plasmid pcDNA3 (Invitrogen) in order to enable constitutive expression therein by the cytomegalovirus promoter. This plasmid was linearized with a restriction endonuclease and stably transfected into the previously described cell clone containing the luciferase reporter element. The finished PPARalpha reporter cell line which contains a luciferase reporter element and constitutively expresses the PPARalpha fusion protein (GR-GAL4-human PPARalpha-LBD) was isolated by selection with zeocin (0.5 mg/ml) and G418 (0.5 mg/ml).
The activity of PPARalpha agonists is determined in a 3-day assay which is described below: […]
On the technique in general: Reporter assays use an easily measured gene product as a stand-in for the process of interest.

The next assay deals with T2, human PPARdelta (Homo sapiens, UniProt Q03181).
T2 construct: amino acids S139-Y441; expressed in transfected cells; host or cells: HEK (human embryo kidney) cells, stably transfected; plasmid pcDNA3
T2 sequence (Q03181 139-441): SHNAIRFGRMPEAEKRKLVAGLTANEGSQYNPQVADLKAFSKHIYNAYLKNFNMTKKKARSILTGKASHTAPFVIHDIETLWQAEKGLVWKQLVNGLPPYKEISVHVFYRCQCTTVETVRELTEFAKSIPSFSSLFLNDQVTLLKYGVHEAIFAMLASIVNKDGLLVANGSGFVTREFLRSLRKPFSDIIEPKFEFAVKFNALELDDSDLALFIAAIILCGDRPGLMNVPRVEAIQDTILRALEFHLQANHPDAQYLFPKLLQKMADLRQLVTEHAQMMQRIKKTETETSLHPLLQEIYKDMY
Kind of assay: Cellular PPARdelta assay (luciferase reporter, stably transfected HEK cell line). The conditions noted are these: GR-GAL4-humanPPARdelta-LBD. It is filed as cell-based. The protocol: Determination of EC50 Values of PPAR Agonists in the Cellular PPARdelta Assay
as §1, with “PPARdelta” for “PPARalpha”, “In analogy to the assay described for PPARalpha, the PPARdelta reporter cell line also” for “It”, “(GR-GAL4-humanPPARdelta-LBD)” for “(GR-GAL4-humanPPARalpha-LBD)”, “GR-GAL4-humanPPARdelta-LBD” for “GR-GAL4-humanPPARalpha-LBD”, “little” for “weak”, “stimulate” for “stimulate the”
The production of the stable PPARdelta reporter cell line is based on a stable HEK-cell clone which was stably transfected with a luciferase reporter element. This step was already described above in the section “construction of the PPARalpha reporter cell line”. In a second step, the PPARdelta fusion protein (GR-GAL4-humanPPARdelta-LBD was stably introduced into this cell clone. For this purpose, the cDNA coding for the N-terminal 76 amino acids of the glucocorticoid receptor (Accession # P04150) was linked to the cDNA section coding for amino acids 1-147 of the yeast transcription factor GAL4 (Accession # P04386). The cDNA of the ligand-binding domain of the human PPARdelta receptor (amino acids S139-Y441; Accession # L07592) was cloned in at the 3′-end of this GR-GAL4 construct. The fusion construct prepared in this way (GR-GAL4-humanPPARdelta-LBD) was recloned into the plasmid pcDNA3 (Invitrogen) in order to enable constitutive expression by the cytomegalovirus promoter. This plasmid was linearized with a restriction endonuclease and stably transfected into the previously described cell clone containing the luciferase reporter element. The resulting PPARdelta reporter cell line which contains a luciferase reporter element and constitutively expresses the PPARdelta fusion protein (GR-GAL4-human PPARdelta-LBD) was isolated by selection with zeocin (0.5 mg/ml) and G418 (0.5 mg/ml).
The activity of PPARdelta agonists is determined in a 3-day assay in exact analogy to the procedure already described for the PPARalpha reporter cell line except that the PPARdelta reporter cell line and a specific PPARdelta agonist was used as a standard to control test efficacy.

For assay [1] the following is noted: rhesus monkeys; cited from earlier work.
For assay [2] the following is noted: cynomoigus monkeys; cited from earlier work.
The conditions of assay [3]: two weeks clinical trials in healthy volunteers; cited from earlier work.
The conditions of assay [4]: obese, insulin resistant rhesus monkeys; cited from earlier work.
For assay [5] the following is noted: diabetic animal model; cited from earlier work.

Each structure is given as a SMILES string. Structures can show the parent of a compound that is named as a salt. Where two headings read alike, the source gives them in different places.

For orientation: EC50 means the concentration needed to bring the measured effect to its halfway point. A low value points to higher potency in that assay.

Take `CCCCN(Cc1ccc(-c2noc(=O)[nH]2)c(F)c1)c1nc2ccc(C(F)(F)F)cc2s1` [Example 24, 3-(4-{[Butyl-(6-trifluoromethyl-benzothiazol-2-yl)-amino]-methyl}-2-fluoro-phenyl)-4H-[1,2,4]oxadiazol-5-one]: the EC50 at human PPARalpha was found to be 1350 nM; on human PPARdelta, 270 nM.
The matching figures for `COCCCN(CCc1ccc(-c2noc(=O)[nH]2)c(C)c1)c1nc2ccc(C(F)(F)F)cc2s1` [Example 14, 3-(4-{2-[(3-Methoxy-propyl)-(6-trifluoromethyl-benzothiazol-2-yl)-amino]-ethyl}-2-methyl-phenyl)-4H-[1,2,4]oxadiazol-5-one]: 70 nM and 4 nM.
`COCCN(Cc1ccc(-c2noc(=O)[nH]2)c(F)c1)c1nc2ccc(C(F)(F)F)cc2s1` [Example 28, 3-(2-Fluoro-4-{[(2-methoxy-ethyl)-(6-trifluoromethyl-benzothiazol-2-yl)-amino]-methyl}-phenyl)-4H-[1,2,4]oxadiazol-5-one]: the EC50 was found to be 1020 nM on human PPARalpha and 60 nM at human PPARdelta.
For `CN(C)CCN(Cc1ccc(-c2noc(=O)[nH]2)c(C(F)(F)F)c1)c1nc2ccc(C(F)(F)F)cc2s1` [Example 33, 3-(4-{[(2-Dimethylamino-ethyl)-(6-trifluoromethyl-benzothiazol-2-yl)-amino]-methyl}-2-trifluoromethyl-phenyl)-4H-[1,2,4]oxadiazol-5-one trifluoroacetate], the EC50 on human PPARalpha was determined as 1100 nM; on human PPARdelta it was 1800 nM.
`CCCc1c(OCCCSc2nnc(SCC(=O)O)s2)ccc(C(C)=O)c1O` [YM-16638]: the plasma lipids entry in assay [1] was “significantly lowers”; in assay [2] it was “significantly lowers”; in assay [3] it was “acts in a similar manner”.
With `COCCN(CCc1ccc(-c2noc(=O)[nH]2)cc1)c1nc(-c2ccc(Cl)cc2)cs1` [Example 23, 3-(4-{2-[[4-(4-Chloro-phenyl)-thiazol-2-yl]-(2-methoxy-ethyl)-amino]-ethyl}-phenyl)-4H-[1,2,4]oxadiazol-5-one], the half-maximal effective concentration (EC50) on human PPARalpha is 820 nM; at human PPARdelta, 650 nM.
For the compound `Cc1cc(SCc2sc(-c3ccc(C(F)(F)F)cc3)nc2C)ccc1OCC(=O)O` [GW501516], in assay [4], the HDL-cholesterol entry is reported as “raises”, the insulin levels result is given as “decreases”, the “plasma LDL-cholesterol” value is given as “decreases” and the plasma triglycerides result is reported as “decreases”.
Regarding `CCCc1c(OCCCOc2ccc(OCC(=O)O)cc2)ccc(C(C)=O)c1O` [Example L-165041], in assay [5], the plasma cholesterol result is given as “raises”.
`Cc1cc(CCN(CC2CCOCC2)c2nc3ccc(C(F)(F)F)cc3s2)ccc1-c1noc(=O)[nH]1` [Example 9, 3-(2-Methyl-4-{2-[(tetrahydro-pyran-4-ylmethyl)-(6-trifluoromethyl-benzothiazol-2-yl)-amino]-ethyl}-phenyl)-4H-[1,2,4]oxadiazol-5-one]: the results for the concentration giving a half-maximal response (EC50) on human PPARalpha and on human PPARdelta were 60 nM and 20 nM, respectively.
On the same counts, the results for `COCCCN(Cc1ccc(-c2noc(=O)[nH]2)c(F)c1)c1nc(-c2ccc(Cl)cc2)cs1` [Example 39, 3-(4-{[[4-(4-Chloro-phenyl)-thiazol-2-yl]-(3-methoxy-propyl)-amino]-methyl}-2-fluoro-phenyl) -4H-[1,2,4]oxadiazol-5-one] are 360 nM and 200 nM.

(Values after patent US7655679B2, “Derivatives of 2-aminothiazoles and 2-amino-oxazoles, processes for their preparation and their use as pharmaceutical compositions” (Sanofi-Aventis, priority 2005, dated 2010).)
